Consider 20 compounds from patent US8404708B2, “Dual NK1/NK3 receptor antagonists” (Hoffmann-La Roche Inc., priority 2004, dated 2013).

Like-named read-outs stand apart in the source and are kept apart here.

One experiment deals with human NK1 receptor (Homo sapiens, UniProt P25103). Put plainly: NK1 receptor binding, [3H]substance P displacement, CHO cell membranes.
Experiment [1] concerns the target T1, Recombinant human NK3 (hNK3) receptor (Homo sapiens, UniProt P29371).
T1 construct: expressed in transfected cells
T1 sequence (P29371 1-465): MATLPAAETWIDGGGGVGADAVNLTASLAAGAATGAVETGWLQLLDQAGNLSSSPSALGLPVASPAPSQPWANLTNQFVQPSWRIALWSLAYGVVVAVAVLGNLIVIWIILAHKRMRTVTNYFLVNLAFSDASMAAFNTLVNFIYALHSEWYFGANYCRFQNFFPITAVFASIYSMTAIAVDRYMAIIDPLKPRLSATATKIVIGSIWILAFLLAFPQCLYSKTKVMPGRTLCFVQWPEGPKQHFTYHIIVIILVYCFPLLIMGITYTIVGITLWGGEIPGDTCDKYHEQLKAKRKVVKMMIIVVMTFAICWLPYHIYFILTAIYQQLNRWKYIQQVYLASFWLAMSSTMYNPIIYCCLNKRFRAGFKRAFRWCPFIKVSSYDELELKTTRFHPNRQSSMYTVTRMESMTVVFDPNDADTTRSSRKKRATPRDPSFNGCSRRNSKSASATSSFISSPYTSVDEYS
In words: NK3 receptor binding, [3H]SR142801 displacement, membrane preparations. The procedure: Non specific binding was determined using 10 μM SB222200. Assay buffer consisted of Tris-HCl (50 mM, pH 7.4), BSA (0.1%), MnCl2 (4 mM) and phosphoramidon (1 μM). Membrane preparations of hNK3 receptors (approximately 2.5 μg/well in a 96 well plate) were used to initiate the incubation for 90 min at room temperature. This assay was terminated by rapid filtration under vacuum through GF/C filters, presoaked for 90 min with PEI (0.3%), with 3×0.5 ml washes of ice-cold Tris buffer (50 mM, pH 7.4) containing 0.1% BSA. The radioactivity retained on the filters was measured by scintillation counting. All assays were performed in duplicate in at least two separate experiments.

[2] abbreviates: first value of the cell pKi NK1/NK3, human NK1 receptor, [3H]substance P.
[3] abbreviates: second value of the cell pKi NK1/NK3, hNK3 receptor, [3H]SR142801.
The mark [4] stands for this setting: first value of the cell NK1/NK3, read-out: pKi NK1 (converted).
Where [5] appears, read: second value of the cell NK1/NK3, read-out: pKi NK3 (converted).

human NK1 receptor, sequence (P25103 whole entry): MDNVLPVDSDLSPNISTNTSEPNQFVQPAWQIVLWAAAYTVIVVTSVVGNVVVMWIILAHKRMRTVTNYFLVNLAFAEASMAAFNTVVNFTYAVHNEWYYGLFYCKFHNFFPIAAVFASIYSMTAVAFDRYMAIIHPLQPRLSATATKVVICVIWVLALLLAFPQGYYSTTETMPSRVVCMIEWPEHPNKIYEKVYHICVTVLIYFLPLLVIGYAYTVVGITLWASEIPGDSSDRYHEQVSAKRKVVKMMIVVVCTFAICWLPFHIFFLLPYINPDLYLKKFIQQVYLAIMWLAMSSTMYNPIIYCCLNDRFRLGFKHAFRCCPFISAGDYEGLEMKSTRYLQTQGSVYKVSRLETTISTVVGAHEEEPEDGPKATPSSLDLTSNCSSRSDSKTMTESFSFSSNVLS

On to `Cc1ccc(F)cc1-c1cc(N2CCC[C@H]2CO)ncc1N(C)C(=O)C(C)(C)c1cc(C(F)(F)F)cc(C(F)(F)F)c1` [Example 166, (S)-2-(3,5-Bis-trifluoromethyl-phenyl)-N-[4-(5-fluoro-2-methyl-phenyl)-6-(2-hydroxymethyl-pyrrolidin-1-yl)-pyridin-3-yl]-N-methyl-isobutyramide], for which the Ki was 3.8 nM on human NK1 receptor (setting [2]) and 1.2 nM in experiment [1] (setting [3]).
In the same order, the values of `CN(C(=O)C(C)(C)c1cc(C(F)(F)F)cc(C(F)(F)F)c1)c1cnc(N[C@H]2CC[C@H](O)CC2)cc1-c1ccc(Cl)cc1Cl` [Example 91, trans-2-(3,5-Bis-trifluoromethyl-phenyl)-N-[4-(2,4-dichloro-phenyl)-6-(4-hydroxy-cyclohexylamino)-pyridin-3-yl]-N-methyl-isobutyramide] are 2.45 nM and 5.62 nM.
For the compound `CN(C(=O)C(C)(C)c1cc(C(F)(F)F)cc(C(F)(F)F)c1)c1cnc(N2CCC[C@H]2CO)cc1-c1ccccc1` [Example 289, (S)-2-(3,5-Bis-trifluoromethyl-phenyl)-N-[6-(2-hydroxymethyl-pyrrolidin-1-yl)-4-phenyl-pyridin-3-yl]-N-methyl-isobutyramide], the Ki is 3.02 nM on human NK1 receptor (setting [4]) and 5.01 nM in experiment [1] (setting [5]).
On the same counts, the results for `Cc1ccccc1-c1cc(N2CC[C@H](O)[C@H]2CO)ncc1N(C)C(=O)C(C)(C)c1cc(C(F)(F)F)cc(C(F)(F)F)c1` [Example 261, (2R,3S)-2-(3,5-Bis-trifluoromethyl-phenyl)-N-[6-(3-hydroxy-2-hydroxymethyl-pyrrolidin-1-yl)-4-o-tolyl-pyridin-3-yl]-N-methyl-isobutyramide] are 1.29 nM and 0.912 nM.
As for `CN(C(=O)C(C)(C)c1cc(C(F)(F)F)cc(C(F)(F)F)c1)c1cnc(N2CC[C@H](O)[C@H]2CO)cc1-c1ccccc1` [Example 265, (2R,3S)-2-(3,5-Bis-trifluoromethyl-phenyl)-N-[6-(3-hydroxy-2-hydroxymethyl-pyrrolidin-1-yl)-4-phenyl-pyridin-3-yl]-N-methyl-isobutyramide], the Ki at human NK1 receptor (setting [4]) is 1.45 nM; in experiment [1] (setting [5]), 4.9 nM.
On the same counts, the results for `CN(C(=O)C(C)(C)c1cc(C(F)(F)F)cc(C(F)(F)F)c1)c1cnc(N2C[C@H](O)C[C@H]2CO)cc1-c1ccc(F)c(Cl)c1` [Example 212, (2S,4R)-2-(3,5-Bis-trifluoromethyl-phenyl)-N-[4-(3-chloro-4-fluoro-phenyl)-6-(4-hydroxy-2-hydroxymethyl-pyrrolidin-1-yl)-pyridin-3-yl]-N-methyl-isobutyramide] are 0.813 nM and 2.51 nM.
Consider `Cc1cc(F)ccc1-c1cc(NCCO)ncc1N(C)C(=O)C(C)(C)c1cc(Cl)cc(Cl)c1` [Example 21, 2-(3,5-Dichloro-phenyl)-N-[4-(4-fluoro-2-methyl-phenyl)-6-(2-hydroxy-ethylamino)-pyridin-3-yl]-N-methyl-isobutyramide], for which the Ki on human NK1 receptor (setting [2]) is 1.29 nM; in experiment [1] (setting [3]) it was 8.71 nM.
For `CN(C(=O)C(C)(C)c1cc(C(F)(F)F)cc(C(F)(F)F)c1)c1cnc(N2C[C@H](O)C[C@H]2CO)cc1-c1ncccc1Cl` [Example 234, (2S,4R)-2-(3,5-Bis-trifluoromethyl-phenyl)-N-[3-chloro-6′-(4-hydroxy-2-hydroxymethyl-pyrrolidin-1-yl)-[2,4′]bipyridinyl-3′-yl]-N-methyl-isobutyramide], the Ki at human NK1 receptor (setting [4]) was 2.19 nM; in experiment [1] (setting [5]) it was 11 nM.
As for `CN(C(=O)C(C)(C)c1cc(C(F)(F)F)cc(C(F)(F)F)c1)c1cnc(NCC(C)(C)O)cc1-c1ccccc1Cl` [Example 75, 2-(3,5-Bis-trifluoromethyl-phenyl)-N-[4-(2-chloro-phenyl)-6-(2-hydroxy-2-methyl-propylamino)-pyridin-3-yl]-N-methyl-isobutyramide], the Ki at human NK1 receptor (setting [2]) is 1.7 nM; in experiment [1] (setting [3]), 12.3 nM.
On the same counts, the results for `Cc1cc(F)ccc1-c1cc(NC(CO)CO)ncc1N(C)C(=O)C(C)(C)c1cc(C(F)(F)F)cc(C(F)(F)F)c1` [Example 142, 2-(3,5-bis-trifluoromethyl-phenyl)-N-[4-(4-fluoro-2-methyl-phenyl)-6-(2-hydroxy-1-hydroxymethyl-ethylamino)-pyridin-3-yl]-N-methyl-isobutyramide] are 1.29 nM and 2.57 nM.
Take `Cc1cc(F)ccc1-c1cc(N2[C@H](CO)CC[C@@H]2CO)ncc1N(C)C(=O)C(C)(C)c1cc(C(F)(F)F)cc(C(F)(F)F)c1` [Example 197, (2R,5S)-N-[6-(2,5-Bis-hydroxymethyl-pyrrolidin-1-yl)-4-(4-fluoro-2-methyl-phenyl)-pyridin-3-yl]-2-(3,5-bis-trifluoromethyl-phenyl)-N-methyl-isobutyramide]: the Ki at human NK1 receptor (setting [2]) was 2.88 nM; in experiment [1] (setting [3]), 3.89 nM.
On the same counts, the results for `Cc1cc(F)ccc1-c1cc(N2CCC[C@@H]2CO)ncc1N(C)C(=O)C(C)(C)c1cc(C(F)(F)F)cc(C(F)(F)F)c1` [Example 93, (R)-2-(3,5-Bis-trifluoromethyl-phenyl)-N-[4-(4-fluoro-2-methyl-phenyl)-6-(2-hydroxymethyl-pyrrolidin-1-yl)-pyridin-3-yl]-N-methyl-isobutyramide] are 1.12 nM and 7.41 nM.
As to `CN(C(=O)C(C)(C)c1cc(C(F)(F)F)cc(C(F)(F)F)c1)c1cnc(N2CCC(S(C)(=O)=O)C2)cc1-c1ccccc1Cl` (racemic) [Example 66, (RS)-2-(3,5-Bis-trifluoromethyl-phenyl)-N-[4-(2-chloro-phenyl)-6-(3-methanesulfonyl-pyrrolidin-1-yl)-pyridin-3-yl]-N-methyl-isobutyramide], the Ki on human NK1 receptor (setting [2]) was 1.48 nM; in experiment [1] (setting [3]) it was 1.29 nM.
In the same order, the values of `CCCCN(CCO)c1cc(-c2ccccc2Cl)c(N(C)C(=O)C(C)(C)c2cc(C(F)(F)F)cc(C(F)(F)F)c2)cn1` [Example 57, 2-(3,5-Bis-trifluoromethyl-phenyl)-N-[6-[butyl-(2-hydroxy-ethyl)-amino]-4-(2-chloro-phenyl)-pyridin-3-yl]-N-methyl-isobutyramide] are 10 nM and 27.5 nM.
Turning to `Cc1cc(-c2cc(N3C[C@H](O)C[C@H]3CO)ncc2N(C)C(=O)C(C)(C)c2cc(C(F)(F)F)cc(C(F)(F)F)c2)ccc1F` [Example 211, (2S,4R)-2-(3,5-Bis-trifluoromethyl-phenyl)-N-[4-(4-fluoro-3-methyl-phenyl)-6-(4-hydroxy-2-hydroxymethyl-pyrrolidin-1-yl)-pyridin-3-yl]-N-methyl-isobutyramide], the values for the Ki (at human NK1 receptor (setting [4]); in experiment [1] (setting [5])) were 1.66 nM and 15.5 nM, respectively.
For `Cc1cc(F)ccc1-c1cc(N2CCNC(=O)CC2)ncc1N(C)C(=O)C(C)(C)c1cc(C(F)(F)F)cc(C(F)(F)F)c1` [Example 164, 2-(3,5-Bis-trifluoromethyl-phenyl)-N-[4-(4-fluoro-2-methyl-phenyl)-6-(5-oxo-[1,4]diazepan-1-yl)-pyridin-3-yl]-N-methyl-isobutyramide], the Ki at human NK1 receptor (setting [2]) was 1.62 nM; in experiment [1] (setting [3]) it was 15.8 nM.
With `Cc1cc(F)ccc1-c1cc(N2CCC(O)C2)ncc1N(C)C(=O)C(C)(C)c1cc(C(F)(F)F)cc(C(F)(F)F)c1` (racemic) [Example 110, (RS)-2-(3,5-Bis-trifluoromethyl-phenyl)-N-[4-(4-fluoro-2-methyl-phenyl)-6-(3-hydroxy-pyrrolidin-1-yl)-pyridin-3-yl]-N-methyl-isobutyramide], the figures for the Ki (on human NK1 receptor (setting [2]); in experiment [1] (setting [3])) were 2.63 nM and 13.8 nM, respectively.
In the same order, the values of `CN(C(=O)C(C)(C)c1cc(F)cc(F)c1)c1cnc(N2C[C@H](O)C[C@H]2CO)cc1-c1ccccc1Cl` [Example 6, (2S,4R)-N-[4-(2-Chloro-phenyl)-6-(4-hydroxy-2-hydroxymethyl-pyrrolidin-1-yl)-pyridin-3-yl]-2-(3,5-difluoro-phenyl)-N-methyl-isobutyramide] are 7.24 nM and 4.9 nM.
For the compound `CN(C(=O)C(C)(C)c1cc(C(F)(F)F)cc(C(F)(F)F)c1)c1cnc(N2C[C@@H](O)C[C@H]2CO)cc1-c1ccccc1` [Example 247, (2S,4S)-2-(3,5-Bis-trifluoromethyl-phenyl)-N-[6-(4-hydroxy-2-hydroxymethyl-pyrrolidin-1-yl)-4-phenyl-pyridin-3-yl]-N-methyl-isobutyramide], the Ki at human NK1 receptor (setting [4]) is 1.51 nM; in experiment [1] (setting [5]) it was 15.8 nM.
Turning to `Cc1ccc(-c2cc(N3C[C@H](O)C[C@H]3CO)ncc2N(C)C(=O)C(C)(C)c2cc(C(F)(F)F)cc(C(F)(F)F)c2)cc1` [Example 200, (2S,4R)-2-(3,5-Bis-trifluoromethyl-phenyl)-N-[6-(4-hydroxy-2-hydroxymethyl-pyrrolidin-1-yl)-4-p-tolyl-pyridin-3-yl]-N-methyl-isobutyramide], the Ki on human NK1 receptor (setting [2]) was 2.34 nM; in experiment [1] (setting [3]), 18.2 nM.
